Measured values taken from USRE50319E1, “Compounds and methods for treating cancer” (Dana-Farber Cancer Institute, Inc., priority 2017, dated 2025).
Structures can show the parent of a compound that is named as a salt. One block for each compound: values may come before it.

Key:
POLQ = POLQ (Homo sapiens, UniProt O75417); experiment: γ-32P-ATP based radiometric ATPase assay; assay type: biochemical; details: for inhibition of POLQ (ATPase) activity: FIG. 2B radiometric ATPase assay
Procedure: FIG. 2C is a bar plot showing quantification of the radiometric ATPase assay showing in FIG. 2B. SMARCAL1 was used as a control ATPase to identify inhibitors that show specificity to POLQ.
100 μM novobiocin was used in the assay. MTX=Mitoxantrone; SUR=Suramin sodium salt; NVB=novobiocin; AUR=Aurintricarboxylic acid; VAND=vandetanib (EGFR inhibitor, negative control).

Alt-EJ repair pathway = experiment: GFP reporter assay using EJ2 repair substrate (Alt-EJ); assay type: cell-based
Procedure: PARP inhibitor and ATM inhibitor were used as positive controls.
(§1) 10 μM concentration of each tested compound was used in the assay. Mitoxantrone and VAND kill cells.
(§2) 50 μM of each tested compound was used in the assay.

homologous recombination = experiment: Homologous recombination repair assay; assay type: cell-based
Procedure: as §1, §2

[1] = tested on: BRCA1-deficient (HR-deficient) tumor cells; experiment: Rapid Cell Titer Glo assay; assay type: cell-based
[2] = tested on: BRCA1-deficient tumor cells; experiment: Clonogenic survival assay, BRCA1-deficient tumor cells; assay type: cell-based; details: FIG. 4, versus isogenic BRCA1-proficient cell line
BRCA1−/− RPE1 cells = experiment: Clonogenic survival assay, RPE1 cells; assay type: cell-based; details: FIGS. 6 and 7
[3] = tested on: PARP inhibitor (olaparib) resistant RPE1 cells; experiment: PARP inhibitor (olaparib) resistant cell lines; assay type: cell-based; details: FIG. 10
RAD51 foci = RAD51 foci formation; assay type: cell-based; details: FIG. 11
yH2AX foci = yH2AX foci formation; assay type: cell-based; details: FIG. 12
[4] = tested on: RPE1-p53−/− BRCA1−/− cells; experiment: Apoptosis, Annexin V kit; assay type: cell-based; details: FIG. 13, analyzed 4 days after NVB
POLQ ATPase domain = POLQ ATPase domain (Homo sapiens, UniProt O75417); experiment: Pull-down with novobiocin-conjugated sepharose beads, POLQ; assay type: binding; details: FIG. 15; novobiocin conjugated to sepharose beads
Chain of POLQ ATPase domain (O75417 102-554 limits assumed): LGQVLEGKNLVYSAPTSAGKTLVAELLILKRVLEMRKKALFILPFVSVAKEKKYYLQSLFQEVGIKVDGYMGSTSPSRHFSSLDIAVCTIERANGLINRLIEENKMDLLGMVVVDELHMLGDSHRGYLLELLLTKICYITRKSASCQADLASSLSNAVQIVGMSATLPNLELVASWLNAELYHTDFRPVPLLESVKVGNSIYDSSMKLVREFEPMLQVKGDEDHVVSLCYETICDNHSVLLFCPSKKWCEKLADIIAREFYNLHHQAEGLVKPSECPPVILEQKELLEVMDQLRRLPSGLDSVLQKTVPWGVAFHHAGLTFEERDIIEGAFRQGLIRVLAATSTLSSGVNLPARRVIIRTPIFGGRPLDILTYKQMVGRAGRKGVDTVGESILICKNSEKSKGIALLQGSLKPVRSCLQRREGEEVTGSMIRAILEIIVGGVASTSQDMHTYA
From the text: FIG. 14 contains an image showing that novobiocin was successfully conjugated to sepharose beads.
The color in the left tube is attributed to the novobiocin bound to the beads.

Chain of POLQ (O75417 whole entry): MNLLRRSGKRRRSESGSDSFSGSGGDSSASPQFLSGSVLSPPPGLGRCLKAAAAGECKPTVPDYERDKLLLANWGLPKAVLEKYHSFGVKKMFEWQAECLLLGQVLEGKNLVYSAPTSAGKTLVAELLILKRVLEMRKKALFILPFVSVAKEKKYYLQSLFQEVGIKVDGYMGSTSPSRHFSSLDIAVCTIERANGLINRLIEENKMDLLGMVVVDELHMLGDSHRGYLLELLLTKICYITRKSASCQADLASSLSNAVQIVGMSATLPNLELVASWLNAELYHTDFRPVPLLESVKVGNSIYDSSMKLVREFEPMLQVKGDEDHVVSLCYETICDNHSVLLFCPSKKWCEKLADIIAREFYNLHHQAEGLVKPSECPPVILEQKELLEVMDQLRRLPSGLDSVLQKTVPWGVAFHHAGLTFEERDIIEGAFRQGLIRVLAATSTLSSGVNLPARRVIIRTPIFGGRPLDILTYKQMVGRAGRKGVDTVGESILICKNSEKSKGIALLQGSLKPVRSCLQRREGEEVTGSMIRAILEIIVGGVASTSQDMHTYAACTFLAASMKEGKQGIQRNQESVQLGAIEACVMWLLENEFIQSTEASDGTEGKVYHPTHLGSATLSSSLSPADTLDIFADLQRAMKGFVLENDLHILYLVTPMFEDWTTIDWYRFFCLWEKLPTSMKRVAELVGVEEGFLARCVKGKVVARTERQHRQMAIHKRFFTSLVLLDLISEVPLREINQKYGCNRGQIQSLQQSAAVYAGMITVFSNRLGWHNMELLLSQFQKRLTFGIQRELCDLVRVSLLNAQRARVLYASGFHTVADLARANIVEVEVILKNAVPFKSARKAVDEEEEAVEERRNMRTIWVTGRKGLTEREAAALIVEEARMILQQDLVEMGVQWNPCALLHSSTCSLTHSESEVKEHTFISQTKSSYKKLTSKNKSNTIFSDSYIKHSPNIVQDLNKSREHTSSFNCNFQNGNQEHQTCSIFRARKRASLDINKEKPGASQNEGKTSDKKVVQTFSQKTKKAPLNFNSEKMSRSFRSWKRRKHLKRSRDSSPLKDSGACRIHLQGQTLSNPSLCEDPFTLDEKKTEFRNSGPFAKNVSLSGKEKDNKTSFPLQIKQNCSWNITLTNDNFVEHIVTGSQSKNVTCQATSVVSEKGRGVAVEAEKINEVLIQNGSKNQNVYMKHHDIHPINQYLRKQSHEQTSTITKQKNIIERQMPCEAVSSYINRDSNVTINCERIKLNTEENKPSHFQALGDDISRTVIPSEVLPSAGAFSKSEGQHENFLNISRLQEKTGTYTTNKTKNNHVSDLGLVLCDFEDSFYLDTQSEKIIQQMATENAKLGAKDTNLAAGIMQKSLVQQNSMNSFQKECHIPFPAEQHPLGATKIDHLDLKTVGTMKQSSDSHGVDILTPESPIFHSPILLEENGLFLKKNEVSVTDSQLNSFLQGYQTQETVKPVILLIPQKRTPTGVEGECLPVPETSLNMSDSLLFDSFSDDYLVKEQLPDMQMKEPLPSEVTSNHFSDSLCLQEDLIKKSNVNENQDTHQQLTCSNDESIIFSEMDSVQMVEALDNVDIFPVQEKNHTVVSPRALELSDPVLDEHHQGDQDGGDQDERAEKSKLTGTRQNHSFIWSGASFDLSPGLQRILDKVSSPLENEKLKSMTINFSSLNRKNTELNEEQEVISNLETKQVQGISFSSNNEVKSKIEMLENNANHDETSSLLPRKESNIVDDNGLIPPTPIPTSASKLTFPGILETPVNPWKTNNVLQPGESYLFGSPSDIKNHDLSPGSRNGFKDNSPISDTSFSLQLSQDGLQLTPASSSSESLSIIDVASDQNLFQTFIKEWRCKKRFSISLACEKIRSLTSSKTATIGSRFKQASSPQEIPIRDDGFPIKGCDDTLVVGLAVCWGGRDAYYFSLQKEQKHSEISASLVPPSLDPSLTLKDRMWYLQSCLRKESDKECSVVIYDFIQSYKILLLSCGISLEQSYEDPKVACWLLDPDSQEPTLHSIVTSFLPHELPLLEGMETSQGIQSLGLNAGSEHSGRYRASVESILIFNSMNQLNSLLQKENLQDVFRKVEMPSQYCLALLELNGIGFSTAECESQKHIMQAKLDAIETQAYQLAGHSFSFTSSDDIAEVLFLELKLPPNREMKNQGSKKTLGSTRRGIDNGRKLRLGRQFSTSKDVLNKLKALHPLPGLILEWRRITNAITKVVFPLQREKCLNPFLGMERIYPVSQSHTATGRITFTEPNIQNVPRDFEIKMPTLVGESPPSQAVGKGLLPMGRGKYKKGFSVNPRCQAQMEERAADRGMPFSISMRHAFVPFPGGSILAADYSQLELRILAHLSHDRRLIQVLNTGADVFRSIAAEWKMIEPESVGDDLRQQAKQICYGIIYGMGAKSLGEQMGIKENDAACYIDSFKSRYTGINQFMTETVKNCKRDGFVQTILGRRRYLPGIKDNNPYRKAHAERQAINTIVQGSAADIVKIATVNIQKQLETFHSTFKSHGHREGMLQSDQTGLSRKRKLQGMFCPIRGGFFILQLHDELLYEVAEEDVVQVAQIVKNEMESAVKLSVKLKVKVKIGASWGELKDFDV

SMILES: O=C1c2c(O)ccc(O)c2C(=O)c2c(NCCNCCO)ccc(NCCNCCO)c21 [Mitoxantrone]
- inhibition of POLQ (ATPase) activity (POLQ): inhibited POLQ activity
- cell killing in the repair assay (Alt-EJ repair pathway; FIG. 8, 10 μM): kill cells
- cell killing in the repair assay (Alt-EJ repair pathway; FIG. 9, 50 μM): killed all cells

- inhibition of POLQ (ATPase) activity (POLQ): inhibited POLQ activity
SMILES: Cc1ccc(C(=O)Nc2ccc(S(=O)(=O)O)c3cc(S(=O)(=O)O)cc(S(=O)(=O)O)c23)cc1NC(=O)c1cccc(NC(=O)Nc2cccc(C(=O)Nc3cc(C(=O)Nc4ccc(S(=O)(=O)O)c5cc(S(=O)(=O)O)cc(S(=O)(=O)O)c45)ccc3C)c2)c1 [S, Suramin sodium salt]

SMILES: COc1cc2c(Nc3ccc(Br)cc3F)ncnc2cc1OCC1CCN(C)CC1 [VAND, vandetanib]
- cell killing in the repair assay (Alt-EJ repair pathway; FIG. 8, 10 μM): kill cells
- cell killing in the repair assay (Alt-EJ repair pathway; FIG. 9, 50 μM): killed all cells

- inhibition of POLQ (ATPase) activity (POLQ; listed as N): inhibited POLQ activity
- inhibition of POLQ (ATPase) activity (POLQ; listed as Novobiocin): inhibits the ATPase of POLQ
- specificity to POLQ (POLQ; FIG. 2C, SMARCAL1 used as control ATPase): showed some specificity to POLQ
- binding / pull-down of POLQ ATPase domain (POLQ ATPase domain): specifically binds to POLQ ATPase domain
SMILES: CO[C@@H]1[C@@H](OC(N)=O)[C@@H](O)[C@H](Oc2ccc3c(O)c(NC(=O)c4ccc(O)c(CC=C(C)C)c4)c(=O)oc3c2C)OC1(C)C [novobiocin]
- inhibition of ATPase activity of POLQ (POLQ; FIG. 5, 32P-based ATPase activity assay, 100 μM novobiocin): specifically inhibits ATPase activity of POLQ
- POLQ ATPase inhibition compared with related ATPases (POLQ; versus ATPase activity of SMARCA or CHD1): inhibits the POLQ ATPase more strongly than it inhibits the ATPase activity of SMARCA or CHD1
- inhibition of Alt-EJ (Alt-EJ repair pathway; FIG. 2D, EJ2 repair substrate GFP reporter): inhibited Alt-EJ
- inhibition of alternative end-joining (Alt-EJ repair pathway; FIG. 8, 10 μM): inhibits alternative end-joining
- inhibition of alternative end-joining (Alt-EJ repair pathway; FIG. 9, 50 μM): inhibits alternative end-joining
- inhibition of homologous recombination (homologous recombination; FIG. 8, 10 μM): not homologous recombination
- inhibition of homologous recombination (homologous recombination; FIG. 9, 50 μM): not homologous recombination
- selective killing of BRCA1-deficient (HR-deficient) tumor cells ([1]; FIG. 3): selectively kills BRCA1-deficient (HR-deficient) tumor cells
- selective killing of BRCA1-deficient (HR-deficient) tumor cells ([1]; FIG. 3, listed as Novobiocin): selectively kills HR-deficient cells as strongly as PARP inhibitor
- selective killing of BRCA1-deficient tumor cells [2]: selectively kills the BRCA1-deficient tumor cells
- selective killing of BRCA1-deficient tumor cells ([2]; listed as Novobiocin): selectively kills BRCA1-deficient tumor cells
- specific killing of BRCA1−/− RPE1 cells (BRCA1−/− RPE1 cells): specifically kills BRCA1−/− RPE1 cells
- killing of PARP inhibitor resistant RPE1 cells [3]: kills RPE1 cells that are resistant to the PARP inhibitor
- RAD51 foci formation (RAD51 foci): induces RAD51 and yH2AX foci formation
- yH2AX foci formation (yH2AX foci): induces RAD51 and yH2AX foci formation
- induction of apoptosis [4]: induces apoptosis specifically in RPE1-p53−/− BRCA1−/− cells

SMILES: O=C(c1cc(Cc2n[nH]c(=O)c3ccccc23)ccc1F)N1CCN(C(=O)C2CC2)CC1 [olaparib]
- selective killing of BRCA1-deficient (HR-deficient) tumor cells ([1]; FIG. 3): selectively kills BRCA1-deficient (HR-deficient) tumor cells
